Consider 17 compounds from US20120065196A1, “AMIDE COMPOUNDS” (priority 2006, published 2012).

This assay has as its target T1, human DGAT1 (Homo sapiens, UniProt O75907).
T1 construct: (N); made in house; host or cells: Sf9 insect cells infected with recombinant baculovirus BAC-DGAT1; microsome fraction
T1 sequence (O75907 1-488): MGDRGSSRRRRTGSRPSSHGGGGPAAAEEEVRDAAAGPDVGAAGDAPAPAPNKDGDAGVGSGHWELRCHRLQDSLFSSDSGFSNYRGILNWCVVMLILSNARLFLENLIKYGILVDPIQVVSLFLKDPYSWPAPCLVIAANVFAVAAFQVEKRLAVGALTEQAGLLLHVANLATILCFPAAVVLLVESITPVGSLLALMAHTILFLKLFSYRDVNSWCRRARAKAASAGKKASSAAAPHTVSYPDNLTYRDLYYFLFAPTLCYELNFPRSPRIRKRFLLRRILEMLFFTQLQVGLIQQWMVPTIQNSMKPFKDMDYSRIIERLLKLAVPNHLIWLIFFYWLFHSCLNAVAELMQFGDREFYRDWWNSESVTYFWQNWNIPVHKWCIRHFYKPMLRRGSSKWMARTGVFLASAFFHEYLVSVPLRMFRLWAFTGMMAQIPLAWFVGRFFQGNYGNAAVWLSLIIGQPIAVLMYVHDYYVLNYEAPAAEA
Put plainly: Determination of DGAT inhibitory activity (triglyceride synthesis with DGAT1 high expression Sf9 microsome). In kind it is biochemical. Particulars: 25 μM dioleoylglycerol, 25 μM [14C]-Oleoyl-CoA, 32° C., 20 min, read-out: hDGAT1 IC50. How it is done: Human DGAT1 gene was cloned by PCR using human adipocyte cDNA (Clontech, QUICK-Clone cDNA, human fat cell, cat #637220) as a template and, based on the DGAT1 gene information reported by Case, S. et al. (Proc. Natl. Acad. Sci. U.S.A. 95 (22), 13018-13023 (1998)), a nucleotide sequence (245-1711 of Genbank Accession No. NM_012079) encoding DGAT1 was amplified with the following PCR primer. The primer nucleotide sequence is shown below.
The PCR reaction was conducted using a KOD-plus kit (TOYOBO). The obtained PCR product was electrophoresed on agarose gel (1%), the DNA fragment amplified by PCR was recovered from the gel, and then digested with restriction enzymes EcoRI and SpeI. The DNA treated with the restriction enzymes was electrophoresed on agarose gel (1%), and the obtained DNA fragment was recovered and ligated with plasmid pFASTBAC1 (Invitrogen) digested with restriction enzymes EcoRI and SpeI to give expression plasmid pFB-DGAT1. The nucleotide sequence of the inserted fragment was confirmed and found to be identical with the nucleotide sequence of DGAT1 (245-1711 of Genbank Accession No. NM_012079). Furthermore, using BAC-TO-BAC Baculovirus Expression System (Invitrogen), recombinant baculovirus BAC-DGAT1 was prepared.
SF9 cells were sown at 1×10^6 cells/ml on Sf-900II SFM medium (1 L, Invitrogen) containing 10% fetal calf serum (Trace), 50 mg/L gentamicin (Invitrogen) and 0.1% Pluronic F-68 (Invitrogen), and shaking culture was performed using a 2 L volume Erlenmeyer flask at 27° C., 100 rpm. After culturing for 24 hrs, recombinant baculovirus BAC-DGAT1 (6.7 mL) was added, and the mixture was further cultured for 3 days. The culture medium was centrifuged at 2,000 rpm for 5 min to give virus-infected cells. The infected cells were washed with a phosphate buffered saline (Invitrogen), centrifuged under the same conditions, and the cells were preserved at −80° C. The cryopreserved cells were thawed in ice, suspended in buffer A (50 mM Tris buffer (30 mL, pH 7.4) containing 20% glycerol, 0.15 M NaCl) supplemented with Complete Protease Inhibitor (Boehringer), and ruptured 3 times with a Polytron homogenizer (Kinematica) at 20,000 rpm for 30 sec. The Sf9 microsome fractions were obtained by a conventional method and cryopreserved at −80° C. as a DGAT1 high expression Sf9 microsome.
As a DGAT1 reaction buffer, a solution having a composition of 100 mM Tris-HCl (pH 7.5), 250 mM sucrose, 150 mM MgCl2, 0.01% bovine serum albumin (BSA) was used. Using this buffer, a given concentration of the test compound and a composition (100 μl) of 25 μM dioleoylglycerol, 25 μM [^14C]-Oleoyl-CoA, 5 μg protein/ml DGAT1 high expression Sf9 microsome, and 1% acetone were subjected to a triglyceride synthesis reaction at 32° C. for 20 min. A mixture of 300 μL of chloroform:methanol (=1:2) was added to the reaction mixture to quench the reaction. The reaction mixture was sufficiently mixed and distilled water (200 μL) was added to partition the mixture between a chloroform layer (lower layer) and an aqueous layer (upper layer). The chloroform layer (50 μL) was spotted on a thin layer chromatography silica gel plate (TLC plate, Merck) and developed with a solvent (n-hexane:diethyl ether:ethyl acetate:acetic acid=255:30:15:0.6). The developed TLC plate was dried, contacted with a BAS imaging plate (manufactured by FUJIFILM) and measured with BAS2500 (manufactured by FUJIFILM) 16 hr later to numerically show the amount of [^14C]-triglyceride (TG amount) produced during the reaction. The inhibitory rate was calculated by the following formula:
Inhibitory rate (%)=(1−(TG amount with addition of test compound−blank TG amount)/(control TG amount−blank TG amount))×100 […]

Molecules are shown by their SMILES. pIC50: −log10 of the molar value.

One may read the pIC50 as the IC50 on a negative log10 scale, so that one unit is a factor of ten.

With `CC(C)c1nc([C@H]2CC[C@H](C(=O)NCCNC(=O)c3cn(-c4ccccc4)nc3C(F)(F)F)CC2)no1` [Example E228, N-(2-(trans-4-(5-isopropyl-1,2,4-oxadiazol-3-yl)cyclohexanecarboxamido)ethyl)-1-phenyl-3-(trifluoromethyl)-1H-pyrazole-4-carboxamide], the pIC50 was 7.00 to 8.00.

`O=C(NCCNC(=O)C1CCc2nc(-c3ccccc3)sc2C1)c1cn(-c2ccccc2)nc1C(F)(F)F` (centres unmarked) [Example E175, 2-phenyl-N-(2-(1-phenyl-3-(trifluoromethyl)-1H-pyrazole-4-carboxamido)ethyl)-4,5,6,7-tetrahydrobenzo[d]thiazole-6-carboxamide]: the pIC50 is 7.00 to 8.00.

For the compound `O=C(NCCNC(=O)C1CCC(c2ccccc2)CC1)c1cn(-c2ccccc2)nc1C(F)(F)F` (centres unmarked) [Example E105, 1-phenyl-N-(2-(4-phenylcyclohexanecarboxamido)ethyl)-3-(trifluoromethyl)-1H-pyrazole-4-carboxamide], the pIC50 is > 8.00.

Take `CN(CCc1ccncc1)C(=O)NCCNC(=O)c1cn(-c2ccccc2)nc1C(F)(F)F` [Example F1, N-(2-(3-Methyl-3-(2-(pyridin-4-yl)ethyl)ureido)ethyl)-1-phenyl-3-(trifluoromethyl)-1H-pyrazole-4-carboxamide]: the pIC50 is 5.00 to 6.00.

As for `O=C(NCCNC(=O)[C@H]1CC[C@H](c2nnc(-c3ccccc3)[nH]2)CC1)c1cn(-c2ccccc2)nc1C(F)(F)F` [Example E229, 1-Phenyl-N-(2-(trans-4-(5-phenyl-4H-1,2,4-triazol-3-yl)cyclohexanecarboxamido)ethyl)-3-(trifluoromethyl)-1H-pyrazole-4-carboxamide], the pIC50 was 6.00 to 7.00.

In the case of `O=C(NCCNC(=O)C1CCc2nc(-c3ccccc3O)sc2C1)c1cn(-c2ccccc2)nc1C(F)(F)F` (centres unmarked) [Example E221, 2-(2-hydroxyphenyl)-N-(2-(1-phenyl-3-(trifluoromethyl)-1H-pyrazole-4-carboxamido)ethyl)-4,5,6,7-tetrahydrobenzo[d]thiazole-6-carboxamide], the pIC50 is 7.00 to 8.00.

Turning to `O=C(NCCNC(=O)[C@H]1CC[C@H](c2nc(-c3ccccc3)c[nH]2)CC1)c1cn(-c2ccccc2)nc1C(F)(F)F` [Example E172, 1-Phenyl-N-(2-(trans-4-(4-phenyl-1H-imidazol-2-yl)cyclohexanecarboxamido)ethyl)-3-(trifluoromethyl)-1H-pyrazole-4-carboxamide], the pIC50 is 6.00 to 7.00.

Take `O=C(NCCNC(=O)C1CCc2c(cnn2-c2ccccc2)C1)c1cn(-c2ccccc2)nc1C(F)(F)F` (centres unmarked) [Example E179, 1-phenyl-N-(2-(1-phenyl-3-(trifluoromethyl)-1H-pyrazole-4-carboxamido)ethyl)-4,5,6,7-tetrahydro-1H-indazole-5-carboxamide]: the pIC50 is 7.00 to 8.00.

For the compound `O=C(NCCNC(=O)[C@H]1CC[C@H](c2nc(C3CC3)no2)CC1)c1cn(-c2ccccc2)nc1C(F)(F)F` [Example E151, N-(2-(trans-4-(3-Cyclopropyl-1,2,4-oxadiazol-5-yl)cyclohexanecarboxamido)ethyl)-1-phenyl-3-(trifluoromethyl)-1H-pyrazole-4-carboxamide], the pIC50 is 7.00 to 8.00.

Regarding `CC(C)CN(C)C(=O)[C@H]1CC[C@H](C(=O)NCCNC(=O)c2cn(-c3ccccc3)nc2C(F)(F)F)CC1` [Example E126, trans-N1-isobutyl-N-1-methyl-N4-(2-(1-phenyl-3-(trifluoromethyl)-1H-pyrazole-4-carboxamido)ethyl)cyclohexane-1,4-dicarboxamide], the pIC50 is 7.00 to 8.00.

On to `O=C(NCCNC(=O)N1CCC(c2nc(-c3cccnc3)no2)CC1)c1cn(-c2ccccc2)nc1C(F)(F)F` [Example E101, N-(2-(1-phenyl-3-(trifluoromethyl)-1H-pyrazole-4-carboxamido)ethyl)-4-(3-(pyridin-3-yl)-1,2,4-oxadiazol-5-yl)piperidine-1-carboxamide], for which the pIC50 was 7.00 to 8.00.

Regarding `CC(C)(C)c1cnc([C@H]2CC[C@H](C(=O)NCCNC(=O)c3cn(-c4ccccc4)nc3C(F)(F)F)CC2)o1` [Example E214, N-(2-(trans-4-(5-tert-butyloxazol-2-yl)cyclohexanecarboxamido)ethyl)-1-phenyl-3-(trifluoromethyl)-1H-pyrazole-4-carboxamide], the pIC50 was 7.00 to 8.00.

As to `Cn1cnc(-c2ccccc2)c1C1CCN(C(=O)NCCNC(=O)c2cn(-c3ccccc3)nc2C(F)(F)F)CC1` [Example E207, 4-(1-methyl-4-phenyl-1H-imidazol-5-yl)-N-(2-(1-phenyl-3-(trifluoromethyl)-1H-pyrazole-4-carboxamido)ethyl)piperidine-1-carboxamide], the pIC50 is 6.00 to 7.00.

As for `CC(C)c1nnc([C@H]2CC[C@H](C(=O)NCCNC(=O)c3cn(-c4ccccc4)nc3C(F)(F)F)N(C)C2)o1` (relative stereo) [Example E267, trans-5-(5-isopropyl-1,3,4-oxadiazol-2-yl)-1-methyl-N-(2-(1-phenyl-3-(trifluoromethyl)-1H-pyrazole-4-carboxamido)ethyl)piperidine-2-carboxamide], the pIC50 is 6.00 to 7.00.

Regarding `CCCC1CCN(C(=O)NCCNC(=O)c2cn(-c3ccccc3)nc2C(F)(F)F)CC1` [Example E15, N-(2-(1-phenyl-3-(trifluoromethyl)-1H-pyrazole-4-carboxamido)ethyl)-4-propylpiperidine-1-carboxamide], the negative-log IC50 (pIC50) is 7.00 to 8.00.

As for `CC(C)c1nnc([C@H]2CC[C@H](C(=O)NCCNC(=O)c3cn(-c4ccccc4F)c4ccccc34)CC2)o1` [Example E265, 1-(2-fluorophenyl)-N-(2-(trans-4-(5-isopropyl-1,3,4-oxadiazol-2-yl)cyclohexanecarboxamido)ethyl)-1H-indole-3-carboxamide], the pIC50 is 7.00 to 8.00.

In the case of `CC(C)C1CN(C(=O)NCCNC(=O)c2cn(-c3ccccc3)nc2C(F)(F)F)CC1C(=O)c1ccccc1` (centres unmarked) [Example E193, N-(2-(3-benzoyl-4-isopropylpyrrolidine-1-carboxamido)ethyl)-1-phenyl-3-(trifluouromethyl)-1H-pyrazole-4-carboxamide], the pIC50 is 5.00 to 6.00.
